A word on the pIC50: it is the IC50 on a negative log10 scale, so that one unit is a factor of ten.

The test system of experiment [1] is human breast tumor MCF-7 cells. Description: Proliferation of MCF-7 cells by CyQUANT analysis. It is filed as cell-based. Conditions: MCF-7 cells in microplates, FIG. 5E. The protocol: To determine whether administration of LPAAT-β inhibitor would have any effect on cell proliferation in tissue culture, proliferation of human breast tumor MCF-7 cells in microplates were measured by CyQUANT analysis using a green-fluorescent nucleic acid stain optimized to produce a linear detection range from 50 to 50,000 cells in 200 μl volume (Molecular Probes, Eugene, Oreg.) in the presence of various concentrations of a LPAAT-β inhibitor.

Another experiment deals with T1, LPAAT-β (Homo sapiens, UniProt O15120).
T1 construct: the full-length human LPAAT-β cDNA was amplified by PCR; poly-histidine tag (N); made in house; host or cells: Sf9 insect cells (baculovirus, pFastBac HTc); membrane fraction used
T1 sequence (O15120 24-278): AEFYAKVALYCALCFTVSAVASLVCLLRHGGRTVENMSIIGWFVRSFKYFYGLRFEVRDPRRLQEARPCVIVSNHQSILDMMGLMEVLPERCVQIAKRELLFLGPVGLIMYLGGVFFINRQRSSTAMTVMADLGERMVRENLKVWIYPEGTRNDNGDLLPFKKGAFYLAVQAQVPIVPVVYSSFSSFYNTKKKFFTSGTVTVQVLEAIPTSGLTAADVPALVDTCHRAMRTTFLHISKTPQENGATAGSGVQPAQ
Description: LPAAT-β colorimetric assay (DTNB detection of released CoA). As to conditions: Sf9 cell membrane overexpressing LPAAT-β; 18:1-CoA and sn-1-18:1 lysoPA; absorbance at 405 nm; read-out: LPAATβ Colorimetric Assay IC50. It is filed as biochemical. An excerpt:
For the construction of Baculovirus expression vectors, the full-length human LPAAT-β cDNA was amplified by PCR from the DNA template pCE9.LPAAT-β (West et al., DNA Cell Biol. 16:691-701 (1997)) using the primers 5′-TGATATCCGAAGAAGATCTTATGGAGCTGTGGCCGTGTC-3′ (olpb1F) and 5′-CAGGCTCTAG ACTACTGGGC CGGCTGCAC-3′ (olpb1R). The ˜870 bp fragment generated was reamplified by PCR using the primers 5′ CCTACGTCG ACATGGAACAAAAATTGATATCCGAAGAAGATC-3′ (olpb2F) and 5′-CAGGCTCTAG ACTACTGGGC CGGCTGCAC-3′ (olpb1R). The ˜890 bp fragment generated was then cleaved with Sal I and Xba I for insertion into pFastBac™ HTc vector (Life Technologies, Gaithersberg, Md.) between the Sal I and Xba I sites for the generation of the plasmid pFB.LPAAT-β. This plasmid was then transformed into E. coli DH10Bac™ (Life Technologies, Gaithersberg, Md.) for the generation of recombinant Bacmid DNA for transfection into HighFive (Invitrogen, San Diego, Calif.) or SF9 insect cells for the production of recombinant Baculovirus stocks using the protocol described in the Bac-to-Bac® Baculovirus Expression System (Life Technologies, Gaithersberg, Md.), a eukaryotic expression system for generating recombinant baculovirus through site-specific transposition in E. coli. Viral stocks harvested from the transfected cells can then be used to infect fresh insect cells for the subsequent expression of LPAAT-β fusion protein with a poly-histidine tag and a myc-epitope near its N-terminus. The membrane fraction from these Sf9 cells would be the source of LPAAT enzyme.
For the preparation of membranes From Sf9 Cells, all steps are performed on ice or at 4° C. Sf9 cell pellets ([…]) were thawed and resuspended in 1-2 ml of buffer A (20 mM Hepes, pH 7.5, 1 mM DTT, 1 mM EDTA, 20% w/v glycerol, 1 mM Benzamidine, 1 μg/ml soybean trypsin inhibitor (SBTI), 1 μg/ml pepstatin A) w/o DTT but with 1 mM Pefabloc. The cells were lysed by sonication using a Branson Sonifier at output=2, duty cycle=2, 10 pulses each at 10 s. with the tip of small sonicator probe submerged but not touching the walls. DTT was then added to 1 mM from a 1M stock. The samples were centrifuged at 1500 rpm for 5 min. The low speed supernatant was saved and centrifuged (TLA 100.3 rotor, polycarbonate tubes, 2 ml/tube or 1.5 ml/tube minimum) at 100000×g for 1 hr. The high speed pellet was resuspend in Buffer A with a probe sonicator (10 pulses @ output #2 and duty cycle 20%) as a source of LPAAT enzyme.
LPAAT-β catalyzes the transfer of an acyl group from a donor such as acyl-CoA to LPA. The transfer of the acyl group from acyl-CoA to LPA leads to the release of free CoA, which can be reacted with the thiol reagent, 5,5′-dithiobis(2-nitrobenzoic acid) (DTNB). The reaction between DTNB and the free sulfhydryl group from CoA generates a yellow-colored product, 3-carboxylato-4-nitrothiophenolate (CNP), that absorbs at 413 nm. LPAAT-β derived from Sf9 cell membrane overexpressing LPAAT-β were resuspended in HEPES saline buffer (20 mM HEPES pH 7.5, 150 mM NaCl), 1 mg/ml BSA and 72 μl aliquots were distributed into 96-well microtiter plates. 8 μl of compound of interest at 200 μM dissolved in 100% DMSO was added into each well. 20 μl of 1 mM 18:1-CoA and 1 mM sn-1-18:1 lysoPA was then added to each well to initiate the reaction and allowed to run at room temperature for 25 min. 100 μl of 1 mM DTNB in 100% ethanol was then added to each well to quench the reaction and for color development. The absorbance at 405 nm, measured using a spectrophotometer plate reader, is proportional to the activity of LPAAT-β in the sample. This calorimetric assay was used for the high throughput screening of LPAAT inhibitors. […] Compounds that gave a reading of less than 0.06 arbitrary units (indicated by arrow on right margin) were selected for further study.

pIC50: −log10 of the molar value.

For `CCC(=O)Nc1ccc(Cl)c(-c2nc3ccc(C)cc3o2)c1` [N-[4-Chloro-3-(6-methyl-benzooxazol-2-yl)-phenyl]-propionamide], the “concentration effective in blocking the proliferation of MCF-7 cells” value in experiment [1] is not below 20 µM.
In the case of `C#CCOC(=O)Nc1ccc(Cl)c(-c2nc3cc(Cl)ccc3o2)c1` [CT-32161, (4-Chloro-3-(5-chloro-benzooxazol-2-yl)-phenyl)-carbamic Acid Prop-2-ynyl Ester], at LPAAT-β, the pIC50 is 7.46.
The same measure, in the same setting: the same measure for `COC(=O)Nc1ccc(Cl)c(-c2nc3cc(Cl)ccc3s2)c1` [CT-32191, [4-Chloro-3-(5-chloro-benzothiazol-2-yl)-phenyl]-carbamic Acid Methyl Ester]: 7.40.
On the same count and under the same terms, under `C#CCOC(=O)Nc1ccc(Cl)c(-c2nc3cc(Cl)ccc3s2)c1` [CT-32192, (4-Chloro-3-(5-chloro-benzothiazol-2-yl)-phenyl)-carbamic Acid Prop-2-ynyl ester] stands 8.22.

For the origin of these results see US20020107269A1, “Benzoxazole LPAAT-B inhibitors and uses thereof” (CELL THERAPEUTICS, INC., priority 2000, published 2002).
